In patent publication US8754119B2, “Use of rotigotine for the treatment of depression” (priority 2003, dated 2014):
“Also recorded” adds a separate entry of the source.

Experiments:
5HT1A receptor [1] = target: T1, 5HT1A receptor (Homo sapiens, UniProt P08908); assay: binding to 5HT1A receptor
T1 sequence (P08908 1-422): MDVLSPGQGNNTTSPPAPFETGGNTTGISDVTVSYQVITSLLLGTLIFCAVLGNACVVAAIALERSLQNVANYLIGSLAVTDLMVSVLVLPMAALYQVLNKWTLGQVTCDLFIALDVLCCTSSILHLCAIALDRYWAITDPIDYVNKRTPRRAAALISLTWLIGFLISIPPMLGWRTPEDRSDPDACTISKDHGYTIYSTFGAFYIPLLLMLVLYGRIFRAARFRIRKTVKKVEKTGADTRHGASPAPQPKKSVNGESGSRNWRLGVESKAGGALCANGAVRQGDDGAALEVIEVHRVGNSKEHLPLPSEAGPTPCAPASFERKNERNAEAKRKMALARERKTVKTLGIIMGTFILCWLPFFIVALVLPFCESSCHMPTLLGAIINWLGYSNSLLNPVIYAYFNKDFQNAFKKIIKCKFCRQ

5HT1A receptor [2] = target: T1, 5HT1A receptor; assay: functional activity on 5HT1A receptors; format: biochemical
Sprague-Dawley rats = assay: bulbectomy study (olfactory bulb removed, locomotor activity); format: in vivo
Procedure: In a further animal model (Embodiment 3) an investigation was made as to whether the antidepressive effects of rotigotine can be distinguished from a general motor stimulation. In this case, rotigotine was administered to rats, whose olfactory bulb had been removed on both sides. The removal of the olfactory bulb leads in the untreated control group to an adaptive hyperactivity. It is known from the literature that chronically administered antidepressants lead to a reduction in movement activity of the animals in this model, while stimulants further increase the motor activity (van Riezen H et al., Br. J. Pharmacol. 60(4), 1977, 521; Kelly J P et al., Pharmacol. Ther. 74(3), 1997, 299). Therefore, it is possible to discriminate between antidepressive and non-specific stimulatory effects of an active ingredient with this model. […] The bulbectomy study was carried out on Sprague-Dawley rats. A group, which had seemingly been operated on, served as a control group and was operated on without the olfactory bulb being removed. 14 days after the operation, the rats were treated with excipients, rotigotine depot suspension (every second day) or imipramine. On test days, the rats were taken onto a test field and left to themselves for 3 minutes. The locomotor activities of the animals were measured here with the aid of the number of lines crossed.

a2 receptors [3] = assay: functional action on a2 receptors; format: biochemical
rats = assay: forced swim test; format: in vivo; settings: subcutaneously applied
Text: The “forced swim test” is an animal model, in which depressive episodes are triggered by acute stress. In this case, rats are forced to swim in a limited space. After initial attempts to save themselves, in which the animals grasp the hopelessness, they lapse into immobility. On repetition of the experiment, the animals remain immobile from the beginning of the experiment. In the event of pre-treatment with antidepressants, the period of immobility is shortened during the repetition experiment; the animals generally start searching and escape movements directly after transfer into the water basin (Porsolt, Biomedicine 30, 1979, 139).

a2 receptors [4] = assay: binding to a2 receptors

With `CCCN(CCc1cccs1)C1CCc2c(O)cccc2C1` (single isomer, unassigned; (-)) [rotigotine, (−)-5,6,7,8-tetrahydro-6-[propyl[2-(2-thienyl)ethyl]amino]-1-naphthol] the “binding to the 5HT1A receptor” value (5HT1A receptor [1]) was “binds”, the “mode of action on 5HT1A receptors” value (5HT1A receptor [2]) was “agonistic activity” and the bulbectomy-induced locomotor hyperactivity (Sprague-Dawley rats; bulbectomised rats, low doses) was “virtually complete suppression of the bulbectomy-induced locomotor hyperactivity; also recorded: significantly reduces the motor hyperactivity”. The locomotor activity (Sprague-Dawley rats; higher doses, bulbectomised and control animals) was “stimulatory dopamine-agonistic effect predominates; also recorded: non-specific activation of the locomotor activity dominates”, the “mode of action on a2 receptors” value (a2 receptors [3]) was “acts antagonistically” and the period of immobility (rats) was “clear reduction in the immobility period”. For the same molecule, the period of immobility (rats; listed as Rotigotine) was “significantly shortened period of immobility” and the “binding to a2 receptors” value (a2 receptors [4]) was “binds”.
